Square brackets hold non-standard residues; d marks the D form. Peptide text beside a SMILES is read from it. * marks the point of attachment. pNA = O=[N+]([O-])c1ccc(N*)cc1; pGlu = O=C1CC[C@@H](C(=O)O)N1
Tests used:
Settings in all cases: 37°C, HBS with 0.1% BSA
muPA wt = molecular target: T1, muPA wt (Mus musculus, UniProt P06869); assay: KM for S-2444 hydrolysis by muPA wt; type: biochemical, murine
T1 construct: To ensure that the uPAs purified from the conditioned media were completely in the two-chain form, they were treated with plasmin; hexa-His (C); made in house; host or cells: HEK293 6E suspension cells
T1 sequence (P06869 180-433 limits assumed): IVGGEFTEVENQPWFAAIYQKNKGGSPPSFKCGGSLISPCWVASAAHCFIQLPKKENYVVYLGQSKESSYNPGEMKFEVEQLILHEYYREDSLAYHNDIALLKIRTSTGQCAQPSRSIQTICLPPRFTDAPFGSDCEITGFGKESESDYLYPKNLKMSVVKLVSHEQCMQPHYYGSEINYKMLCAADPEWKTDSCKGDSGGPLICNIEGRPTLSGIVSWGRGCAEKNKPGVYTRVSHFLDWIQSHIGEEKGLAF
T1 sequence (P06869 21-178 partner limits assumed): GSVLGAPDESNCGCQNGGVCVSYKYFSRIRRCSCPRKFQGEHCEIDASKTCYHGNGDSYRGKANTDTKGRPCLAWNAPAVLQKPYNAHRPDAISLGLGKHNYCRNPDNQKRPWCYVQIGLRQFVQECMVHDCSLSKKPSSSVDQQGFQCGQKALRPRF
Description: (§1) Determination of K M values
(§2) To determine the K M values for hydrolysis of S-2444 (pyro-Glu-Gly-Arg-p-nitroanilide) by the different uPA variants used in the present study, a 200 µL 2-fold dilution series of the substrate (4 - 0 mM for huPA variants, 24 – 0 mM for muPA variants) in a buffer of 10 mM HEPES, pH 7.4, 140 mM NaCl (HEPES-buffered saline, HBS), with 0.1% bovine serum albumin (BSA), was incubated 2 min at 37°C, prior to the addition of a fixed concentration of each protease (approximaterly 2 nM final concentration). The initial reaction velocities (V i), monitored as the changes in absorbance at 405 nm, were plotted against the initial substrate concentration ([S]) and non-linear regression analysis was used to determine the K M according to equation 1: […]
(§3) The K M values for hydrolysis of S-2444 by the uPA variants employed in the present study are listed in S2 Table.

muPA K41A = molecular target: T2, muPA K41A (Mus musculus, UniProt P06869, K210A); assay: KM for S-2444 hydrolysis by muPA K41A; type: biochemical, murine
T2 construct: To ensure that the uPAs purified from the conditioned media were completely in the two-chain form, they were treated with plasmin; hexa-His (C); made in house; host or cells: HEK293 6E suspension cells
T2 sequence (P06869 180-433 K210A): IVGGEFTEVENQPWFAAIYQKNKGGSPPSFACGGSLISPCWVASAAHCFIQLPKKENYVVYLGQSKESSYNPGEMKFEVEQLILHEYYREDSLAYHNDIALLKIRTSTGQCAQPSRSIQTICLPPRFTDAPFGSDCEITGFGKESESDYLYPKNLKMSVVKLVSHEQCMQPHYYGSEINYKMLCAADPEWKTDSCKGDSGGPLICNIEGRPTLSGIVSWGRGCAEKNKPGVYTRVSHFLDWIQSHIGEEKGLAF
T2 sequence (P06869 21-178 partner limits assumed): as the sequence (P06869 21-178 partner limits assumed) above
Description: as §1, §2, §3

muPA Y99A = molecular target: T3, muPA Y99A (Mus musculus, UniProt P06869, Y274A); assay: KM for S-2444 hydrolysis by muPA Y99A; type: biochemical, murine
T3 construct: To ensure that the uPAs purified from the conditioned media were completely in the two-chain form, they were treated with plasmin; hexa-His (C); made in house; host or cells: HEK293 6E suspension cells
T3 sequence (P06869 180-433 Y274A): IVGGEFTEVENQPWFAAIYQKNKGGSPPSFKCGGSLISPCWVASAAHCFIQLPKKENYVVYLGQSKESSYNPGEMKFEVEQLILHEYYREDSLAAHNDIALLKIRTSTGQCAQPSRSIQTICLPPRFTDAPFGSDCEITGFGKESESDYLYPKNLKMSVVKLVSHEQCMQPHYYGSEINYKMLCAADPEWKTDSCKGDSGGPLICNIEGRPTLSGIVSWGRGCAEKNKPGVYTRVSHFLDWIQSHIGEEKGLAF
T3 sequence (P06869 21-178 partner limits assumed): as the sequence (P06869 21-178 partner limits assumed) above
Description: as §1, §2, §3

muPA K143A = molecular target: T4, muPA K143A (Mus musculus, UniProt P06869, K322A); assay: KM for S-2444 hydrolysis by muPA K143A; type: biochemical, murine
T4 construct: To ensure that the uPAs purified from the conditioned media were completely in the two-chain form, they were treated with plasmin; hexa-His (C); made in house; host or cells: HEK293 6E suspension cells
T4 sequence (P06869 180-433 K322A): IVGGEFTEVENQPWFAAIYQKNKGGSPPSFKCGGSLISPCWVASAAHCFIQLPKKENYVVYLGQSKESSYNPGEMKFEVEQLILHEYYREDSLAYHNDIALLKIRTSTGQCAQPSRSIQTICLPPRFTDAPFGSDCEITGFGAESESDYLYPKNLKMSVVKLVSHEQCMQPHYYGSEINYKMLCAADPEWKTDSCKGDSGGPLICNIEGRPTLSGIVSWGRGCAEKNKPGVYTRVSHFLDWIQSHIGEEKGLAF
T4 sequence (P06869 21-178 partner limits assumed): as the sequence (P06869 21-178 partner limits assumed) above
Description: as §1, §2, §3

muPA S190A = molecular target: T5, muPA S190A (Mus musculus, UniProt P06869, S373A); assay: KM for S-2444 hydrolysis by muPA S190A; type: biochemical, murine
T5 construct: To ensure that the uPAs purified from the conditioned media were completely in the two-chain form, they were treated with plasmin; hexa-His (C); made in house; host or cells: HEK293 6E suspension cells
T5 sequence (P06869 180-433 S373A): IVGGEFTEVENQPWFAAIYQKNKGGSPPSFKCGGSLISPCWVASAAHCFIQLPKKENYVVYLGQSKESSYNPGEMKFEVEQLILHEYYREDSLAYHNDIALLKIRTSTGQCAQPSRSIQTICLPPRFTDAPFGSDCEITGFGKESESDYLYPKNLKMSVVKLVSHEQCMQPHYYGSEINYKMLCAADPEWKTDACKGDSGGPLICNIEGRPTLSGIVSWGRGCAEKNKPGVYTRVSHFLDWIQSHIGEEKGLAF
T5 sequence (P06869 21-178 partner limits assumed): as the sequence (P06869 21-178 partner limits assumed) above
Description: as §1, §2, §3

muPA V213T = molecular target: T6, muPA V213T (Mus musculus, UniProt P06869, V396T); assay: KM for S-2444 hydrolysis by muPA V213T; type: biochemical, murine
T6 construct: To ensure that the uPAs purified from the conditioned media were completely in the two-chain form, they were treated with plasmin; hexa-His (C); made in house; host or cells: HEK293 6E suspension cells
T6 sequence (P06869 180-433 V396T): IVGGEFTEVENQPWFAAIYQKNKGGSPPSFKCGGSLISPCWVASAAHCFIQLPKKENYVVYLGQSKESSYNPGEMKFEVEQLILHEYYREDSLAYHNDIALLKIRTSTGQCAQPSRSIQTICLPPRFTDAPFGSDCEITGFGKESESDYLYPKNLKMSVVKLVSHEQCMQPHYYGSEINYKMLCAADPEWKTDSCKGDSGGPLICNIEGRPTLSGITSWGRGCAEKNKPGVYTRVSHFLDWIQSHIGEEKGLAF
T6 sequence (P06869 21-178 partner limits assumed): as the sequence (P06869 21-178 partner limits assumed) above
Description: as §1, §2, §3

huPA wt = molecular target: T7, huPA wt (Homo sapiens, UniProt P00749); assay: KM for S-2444 hydrolysis by huPA wt; type: biochemical
T7 construct: To ensure that the uPAs purified from the conditioned media were completely in the two-chain form, they were treated with plasmin; hexa-His (C); made in house; host or cells: HEK293 6E suspension cells
Description: as §1, §2, §3

huPA-H99Y = molecular target: T8, huPA-H99Y (Homo sapiens, UniProt P00749, H272Y); assay: KM for S-2444 hydrolysis by huPA-H99Y; type: biochemical
T8 construct: To ensure that the uPAs purified from the conditioned media were completely in the two-chain form, they were treated with plasmin; hexa-His (C); made in house; host or cells: HEK293 6E suspension cells
Description: as §1, §2, §3

huPA-H99Y R35A = molecular target: T9, huPA-H99Y R35A (Homo sapiens, UniProt P00749, H272Y/R198A); assay: KM for S-2444 hydrolysis by huPA-H99Y R35A; type: biochemical
T9 construct: To ensure that the uPAs purified from the conditioned media were completely in the two-chain form, they were treated with plasmin; hexa-His (C); made in house; host or cells: HEK293 6E suspension cells
Description: as §1, §2, §3

huPA-H99Y V41A = molecular target: T10, huPA-H99Y V41A (Homo sapiens, UniProt P00749, H272Y/V208A); assay: KM for S-2444 hydrolysis by huPA-H99Y V41A; type: biochemical
T10 construct: To ensure that the uPAs purified from the conditioned media were completely in the two-chain form, they were treated with plasmin; hexa-His (C); made in house; host or cells: HEK293 6E suspension cells
Description: as §1, §2, §3

huPA-H99Y K143A = molecular target: T11, huPA-H99Y K143A (Homo sapiens, UniProt P00749, H272Y/K320A); assay: KM for S-2444 hydrolysis by huPA-H99Y K143A; type: biochemical
T11 construct: To ensure that the uPAs purified from the conditioned media were completely in the two-chain form, they were treated with plasmin; hexa-His (C); made in house; host or cells: HEK293 6E suspension cells
Description: as §1, §2, §3

huPA-H99Y Q192A = huPA-H99Y Q192A (Homo sapiens, UniProt P00749, H272Y/Q373A); assay: KM for S-2444 hydrolysis by huPA-H99Y Q192A; type: biochemical; design: hexa-His (C); made in house; host or cells: HEK293 6E suspension cells
Description: as §1, §2, §3

## NC(N)=NCCC[C@H](NC(=O)CNC(=O)[C@@H]1CCC(=O)N1)C(=O)Nc1ccc([N+](=O)[O-])cc1 [S-2444, pyro-Glu-Gly-Arg-p-nitroanilide] ([pGlu]-Gly-Arg-pNA)
muPA wt
  Km: 2400 ± 200 µM
muPA K41A
  Km: 2500 ± 200 µM
muPA Y99A
  Km: 3600 ± 300 µM
muPA K143A
  Km: 1000 ± 400 µM
muPA S190A
  Km: 10800 ± 1000 µM
muPA V213T
  Km: 868 ± 350 µM
huPA wt
  Km: 87 ± 0.3 µM
huPA-H99Y
  Km: 610 ± 110 µM
huPA-H99Y R35A
  Km: 517 ± 156 µM
huPA-H99Y V41A
  Km: 742 ± 73 µM
huPA-H99Y K143A
  Km: 500 ± 41 µM
huPA-H99Y Q192A
  Km: 904 ± 178 µM

Source: publication PMC4278837, “A Cyclic Peptidic Serine Protease Inhibitor: Increasing Affinity by Increasing Peptide Flexibility” (PLoS ONE, 2014)
